Results on 31 compounds are retold here after patent US20250025443A1, “COMPOUNDS AND METHODS FOR TREATING CORONA VIRUSES” (CLEAR CREEK BIO, INC., priority 2021, published 2025).

For orientation: IC50 means the concentration needed to halve the response being measured.

This assay deals with SARS-CoV-2 Papain-Like Protease (PLpro) (Severe acute respiratory syndrome coronavirus 2 (2019-nCoV) (SARS-CoV-2), UniProt P0DTD1). Kind of assay: biochemical. To be noted: PLpro enzymatic fluorescence assay; class symbols; read-out: PLpro IC50.
Turning to `Cc1ccc(OC[C@@H]2CCN2)cc1C(=O)NC1(c2cc(C3=CCCCC3)cc3ncccc23)CC1` [Compound 662, (S)-5-(Azetidin-2-ylmethoxy)-N-(1-(7-(cyclohex-1-en-1-yl)quinolin-5-yl)cyclopropyl)-2-methylbenzamide], the IC50 was less than 100 nM.
To `Cc1ccc(OC[C@@H]2CCN2C)cc1C(=O)NC1(c2cc(C3=CCCCC3)cc3ncccc23)CC1` [Compound 663, (S)—N-(1-(7-(Cyclohex-1-en-1-yl)quinolin-5-yl)cyclopropyl)-2-methyl-5-((1-methylazetidin-2-yl)methoxy)benzamide] belongs less than 100 nM; to `Cc1ccc(OC[C@@H]2CCN2)cc1C(=O)NC1(c2cc(-c3ccn(-c4ccccc4)n3)cc3ncccc23)CC1` [Compound 664, (S)-5-(Azetidin-2-ylmethoxy)-2-methyl-N-(1-(7-(1-phenyl-1H-pyrazol-3-yl)quinolin-5-yl)cyclopropyl)benzamide], less than 100 nM.
The figure for `Cc1ccc(OC[C@@H]2CCN2)cc1C(=O)NC1(c2cc(-c3cnn(C)c3)cc3ncccc23)CC1` [Compound 665, (S)-5-(Azetidin-2-ylmethoxy)-2-methyl-N-(1-(7-(1-methyl-1H-pyrazol-4-yl)quinolin-5-yl)cyclopropyl)benzamide] is less than 100 nM; for `Cc1ccc(OC[C@@H]2CCN2)cc1C(=O)NC1(c2cc(-c3ccc(F)c(Cl)c3)cc3ncccc23)CC1` [Compound 666, (S)-5-(Azetidin-2-ylmethoxy)-N-(1-(7-(3-chloro-4-fluorophenyl)quinolin-5-yl)cyclopropyl)-2-methylbenzamide] it is less than 100 nM.
To `Cc1ccc(OC[C@@H]2CCN2)cc1C(=O)NC1(c2cc(/C=C/C3CC3)cc3ncccc23)CC1` [Compound 667, (S,E)-5-(Azetidin-2-ylmethoxy)-N-(1-(7-(2-cyclopropylvinyl)quinolin-5-yl)cyclopropyl)-2-methylbenzamide] belongs less than 100 nM; to `Cc1ccc(OC[C@@H]2CCN2C)cc1C(=O)NC1(c2cc(-c3sccc3Cl)cc3ncccc23)CC1` [Compound 668, (S)-N-(1-(7-(3-Chlorothiophen-2-yl)quinolin-5-yl)cyclopropyl)-2-methyl-5-((1-methylazetidin-2-yl)methoxy)benzamide], less than 100 nM.
On to `Cc1ccc(OC[C@@H]2CCN2C)cc1C(=O)NC1(c2cc(-c3ccc(CN4CCCC4)s3)cc3ncccc23)CC1` [Compound 669, (S)-2-Methyl-5-((1-methylazetidin-2-yl)methoxy)-N-(1-(7-(5-(pyrrolidin-1-ylmethyl)thiophen-2-yl)quinolin-5-yl)cyclopropyl)benzamide], for which the IC50 is less than 100 nM.
For the compound `Cc1ccc(OC[C@@H]2CCN2C)cc1C(=O)NC1(c2cc(-c3cnn(C)c3)cc3ncccc23)CC1` [Compound 670, (S)-2-Methyl-N-(1-(7-(1-methyl-1H-pyrazol-4-yl)quinolin-5-yl)cyclopropyl)-5-((1-methylazetidin-2-yl)methoxy)benzamide], the IC50 is less than 100 nM.
To `Cc1cc(-c2cc(C3(NC(=O)c4cc(OC[C@@H]5CCN5C)ccc4C)CC3)c3cccnc3c2)c(C)o1` [Compound 671, (S)—N-(1-(7-(2,5-Dimethylfuran-3-yl)quinolin-5-yl)cyclopropyl)-2-methyl-5-((1-methylazetidin-2-yl)methoxy)benzamide] belongs less than 100 nM.
To `Cc1ccc(OC[C@@H]2CCN2C)cc1C(=O)NC1(c2cc(-c3ccc(=O)[nH]c3)cc3ncccc23)CC1` [Compound 672, (S)-2-Methyl-5-((1-methylazetidin-2-yl)methoxy)-N-(1-(7-(6-oxo-1,6-dihydropyridin-3-yl)quinolin-5-yl)cyclopropyl)benzamide] belongs less than 100 nM.
Turning to `Cc1nnc(-c2cc(C3(NC(=O)c4cc(OC[C@@H]5CCN5)ccc4C)CC3)c3cccnc3c2)s1` [Compound 673, (S)-5-(Azetidin-2-ylmethoxy)-2-methyl-N-(1-(7-(5-methyl-1,3,4-thiadiazol-2-yl)quinolin-5-yl)cyclopropyl)benzamide], the IC50 was less than 100 nM.
The figure for `Cc1ccc(OC[C@@H]2CCN2)cc1C(=O)NC1(c2cc(-c3ccc(=O)[nH]c3)cc3ncccc23)CC1` [Compound 674, (S)-5-(Azetidin-2-ylmethoxy)-2-methyl-N-(1-(7-(6-oxo-1,6-dihydropyridin-3-yl)quinolin-5-yl)cyclopropyl)benzamide] is less than 100 nM.
The figure for `Cc1ccc(OC[C@@H]2CCN2)cc1C(=O)NC1(c2cc(-c3ccc(F)cc3)cc3ncccc23)CC1` [Compound 675, (S)-5-(Azetidin-2-ylmethoxy)-N-(1-(7-(4-fluorophenyl)quinolin-5-yl)cyclopropyl)-2-methylbenzamide] is less than 100 nM.
`Cc1ccc(OC[C@@H]2CCN2C)cc1C(=O)NC1(c2cc(C(C)O)cc3ncccc23)CC1` (stereo partly drawn) [Compound 676, N-(1-(7-(1-Hydroxyethyl)quinolin-5-yl)cyclopropyl)-2-methyl-5-(((S)-1-methylazetidin-2-yl)methoxy)benzamide]: the IC50 is less than 100 nM.
Take `CCc1cc(C2(NC(=O)c3cc(OC[C@@H]4CCN4)ccc3C)CC2)c2cccnc2c1` [Compound 677, (S)-5-(Azetidin-2-ylmethoxy)-N-(1-(7-ethylquinolin-5-yl)cyclopropyl)-2-methylbenzamide]: the IC50 was less than 100 nM.
`Cc1ccc(OC[C@@H]2CCN2C)cc1C(=O)NC1(c2cc(-c3ccc(F)cc3)cc3ncccc23)CC1` [Compound 678, (S)—N-(1-(7-(4-Fluorophenyl)quinolin-5-yl)cyclopropyl)-2-methyl-5-((1-methylazetidin-2-yl)methoxy)benzamide]: the IC50 was less than 100 nM.
To `Cc1nnc(-c2cc(C3(NC(=O)c4cc(OC[C@@H]5CCN5)ccc4C)CC3)c3cccnc3c2)o1` [Compound 680, (S)-5-(Azetidin-2-ylmethoxy)-2-methyl-N-(1-(7-(5-methyl-1,3,4-oxadiazol-2-yl)quinolin-5-yl)cyclopropyl)benzamide] belongs less than 100 nM.
To `Cc1ccc(OC[C@@H]2CCN2C)cc1C(=O)NC1(c2cc(-c3ncccn3)cc3ncccc23)CC1` [Compound 681, (S)-2-Methyl-5-((1-methylazetidin-2-yl)methoxy)-N-(1-(7-(pyrimidin-2-yl)quinolin-5-yl)cyclopropyl)benzamide] belongs less than 100 nM; to `Cc1ccc(OC[C@@H]2CCN2)cc1C(=O)NC1(c2cc(-c3ncccn3)cc3ncccc23)CC1` [Compound 682, (S)-5-(Azetidin-2-ylmethoxy)-2-methyl-N-(1-(7-(pyrimidin-2-yl)quinolin-5-yl)cyclopropyl)benzamide], less than 100 nM.
To `Cc1ccc(OC[C@@H]2CCN2C)cc1C(=O)NC1(c2cc(N3CCCC3)cc3ncccc23)CC1` [Compound 683, (S)-2-Methyl-5-((1-methylazetidin-2-yl)methoxy)-N-(1-(7-(pyrrolidin-1-yl)quinolin-5-yl)cyclopropyl)benzamide] belongs less than 100 nM; to `Cc1ccc(OC[C@@H]2CCN2C)cc1C(=O)NC1(c2cc(/C=C/C3CC3)cc3ncccc23)CC1` [Compound 684, (S,E)-N-(1-(7-(2-Cyclopropylvinyl)quinolin-5-yl)cyclopropyl)-2-methyl-5-((1-methylazetidin-2-yl)methoxy)benzamide], less than 100 nM; to `Cc1ccc(OC[C@@H]2CCN2)cc1C(=O)NC1(c2cc(-c3ccc4ncnn4c3)cc3ncccc23)CC1` [Compound 685, (S)-N-(1-(7-([1,2,4]Triazolo[1,5-a]pyridin-6-yl)quinolin-5-yl)cyclopropyl)-5-(azetidin-2-ylmethoxy)-2-methylbenzamide], less than 100 nM.
Regarding `Cc1ccc(OC[C@@H]2CCN2)cc1C(=O)NC1(c2cc(-c3ccc4nccn4c3)cc3ncccc23)CC1` [Compound 686, (S)-5-(Azetidin-2-ylmethoxy)-N-(1-(7-(imidazo[1,2-a]pyridin-6-yl)quinolin-5-yl)cyclopropyl)-2-methylbenzamide], the IC50 was less than 100 nM.
The figure for `Cc1ccc(OC[C@@H]2CCN2C)cc1C(=O)NC1(c2cc(-c3ccc(F)c(Cl)c3)cc3ncccc23)CC1` [Compound 687, (S)—N-(1-(7-(3-Chloro-4-fluorophenyl)quinolin-5-yl)cyclopropyl)-2-methyl-5-((1-methylazetidin-2-yl)methoxy)benzamide] is less than 100 nM; for `Cc1ccc(OC[C@@H]2CCN2)cc1C(=O)NC1(c2cc(-c3cnc(N4CCCCC4)nc3)cc3ncccc23)CC1` [Compound 688, (S)-5-(Azetidin-2-ylmethoxy)-2-methyl-N-(1-(7-(2-(piperidin-1-yl)pyrimidin-5-yl)quinolin-5-yl)cyclopropyl)benzamide] it is less than 100 nM.
To `Cc1ccc(OC[C@@H]2CCN2)cc1C(=O)NC1(c2cc(-c3cncc(N4CCOCC4)c3)cc3ncccc23)CC1` [Compound 689, (S)-5-(Azetidin-2-ylmethoxy)-2-methyl-N-(1-(7-(5-morpholinopyridin-3-yl)quinolin-5-yl)cyclopropyl)benzamide] belongs less than 100 nM; to `Cc1cccc(/C=C/c2cc(C3(NC(=O)c4cc(OC[C@@H]5CCN5C)ccc4C)CC3)c3cccnc3c2)c1` [Compound 690, (S,E)-2-Methyl-5-((1-methylazetidin-2-yl)methoxy)-N-(1-(7-(3-methylstyryl)quinolin-5-yl)cyclopropyl)benzamide], less than 100 nM; to `Cc1nnc(-c2cc(C3(NC(=O)c4cc(OC[C@@H]5CCN5C)ccc4C)CC3)c3cccnc3c2)s1` [Compound 691, (S)-2-Methyl-N-(1-(7-(5-methyl-1,3,4-thiadiazol-2-yl)quinolin-5-yl)cyclopropyl)-5-((1-methylazetidin-2-yl)methoxy)benzamide], less than 100 nM.
To `Cc1nnc(-c2cc(C3(NC(=O)c4cc(OC[C@@H]5CCN5C)ccc4C)CC3)c3cccnc3c2)o1` [Compound 693, (S)-2-Methyl-N-(1-(7-(5-methyl-1,3,4-oxadiazol-2-yl)quinolin-5-yl)cyclopropyl)-5-((1-methylazetidin-2-yl)methoxy)benzamide] belongs less than 100 nM; to `Cc1ccc(OC[C@@H]2CCN2)cc1C(=O)NC1(c2cc(-c3ncco3)cc3ncccc23)CC1` [Compound 694, (S)-5-(Azetidin-2-ylmethoxy)-2-methyl-N-(1-(7-(oxazol-2-yl)quinolin-5-yl)cyclopropyl)benzamide], less than 100 nM.
